According to article PMC12893000, “Structural basis of quinone sensing by the MarR-type repressor MhqR in Staphylococcus aureus” (mBio, 2025):

Assays:
SaMhqR [1] = molecular target: T1, SaMhqR (Staphylococcus aureus, UniProt W8U802); assay: crystal structure (co-crystallized with MHQ, oxidized to MBQ) and ITC; assay type: binding
T1 construct: gene ACR79_11795; full-length (144 amino acids), C-terminal His-tag, homodimer

SaMhqR [2] = molecular target: T1, SaMhqR; assay: ITC; assay type: binding

T1 sequence (W8U802 entry or part of it): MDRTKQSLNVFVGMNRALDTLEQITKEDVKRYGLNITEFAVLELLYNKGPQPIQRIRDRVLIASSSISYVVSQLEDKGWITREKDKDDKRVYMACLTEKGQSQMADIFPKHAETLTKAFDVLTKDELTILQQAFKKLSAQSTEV

Structure (SMILES): CC1=CC(=O)C=CC1=O [MBQ, 2-methylbenzoquinone]
- Kd (SaMhqR [1]): ~3 µM

Structure (SMILES): Cc1cc(O)ccc1O [MHQ, 2-methylhydroquinone]
- Kd (SaMhqR [2]): ~6 µM
